Measured values as given in the supplement of paper PMC5908809.

Experiments:
Assay in all cases: relative IC50 (inflection point of fitted viability curve, relative to fitted max inhibition); higher = less sensitive
Settings in all cases: 72 h
DERL-7 (IL-2 2.5 ng/mL) = system: DERL-7 (IL-2 2.5 ng/mL)
Description: (§1)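 Drug sensitivity and resistance testing: 5 concentrations over a 10,000-fold range, 72 h at 37 °C, viability by CellTiter-Glo normalised to DMSO and benzethonium chloride controls. IC50 is the inflection point of a logistic fit (min fixed at 0, max fitted), so it is relative to the fitted maximal inhibition. Kept only where fitted max inhibition is at least 50%.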

KAI3 (IL-2 2.5 ng/mL) = system: KAI3 (IL-2 2.5 ng/mL)
Description: as §1

KHYG-1 (IL-2 2.5 ng/mL) = system: KHYG-1 (IL-2 2.5 ng/mL)
Description: as §1

NK-92 (IL-2 2.5 ng/mL) = system: NK-92 (IL-2 2.5 ng/mL)
Description: as §1

NKL (IL-2 2.5 ng/mL) = system: NKL (IL-2 2.5 ng/mL)
Description: as §1

Compound	relative IC50 (DERL-7 (IL-2 2.5 ng/mL))	relative IC50 (KAI3 (IL-2 2.5 ng/mL))	relative IC50 (NKL (IL-2 2.5 ng/mL))	other results
CCn1c(C(=O)N(C2CC2)C2CC2)cc2c3c(ncn3C)c(Nc3cc(C)n(C)n3)nc21	1630 nM	180 nM	797 nM	relative IC50 (KHYG-1 (IL-2 2.5 ng/mL)): 1820 nM; relative IC50 (NK-92 (IL-2 2.5 ng/mL)): 1980 nM
COc1ccc2c(OCc3nnc4ccc(-c5ccccc5)nn34)ccnc2c1 [AMG-208]	> 2500 nM	–	–	–
C=C(c1ccc(C(=O)O)cc1)c1cc2c(cc1C)C(C)(C)CCC2(C)C [Bexarotene]	–	–	208 nM	–
C[C@H](Nc1ncnc2nc[nH]c12)c1cc2cccc(Cl)c2c(=O)n1-c1ccccc1 [Duvelisib]	44.5 nM	–	–	–
CC(C)NC[C@@H](C(=O)N1CCN(c2ncnc3c2[C@H](C)C[C@H]3O)CC1)c1ccc(Cl)cc1 [GDC-0068]	1030 nM	–	–	–
NC(=O)NO [Hydroxyurea]	–	2630 nM	–	–
Nc1nc(OCc2cc(Br)cs2)c2[nH]cnc2n1 [Lomeguatrib]	–	–	1900 nM	–
NC1(c2ccc(-c3nc4ccn5c(=O)[nH]nc5c4cc3-c3ccccc3)cc2)CCC1 [MK-2206]	103 nM	–	–	–
O=C(Nc1cc(Cl)cc2c1[nH]c1cnccc12)c1cccnc1 [PS-1145]	–	1650 nM	–	–
CN1CCN(c2nc(C3=C(c4c[nH]c5ccccc45)C(=O)NC3=O)c3ccccc3n2)CC1 [Sotrastaurin]	1080 nM	1620 nM	499 nM	relative IC50 (KHYG-1 (IL-2 2.5 ng/mL)): 1800 nM; relative IC50 (NK-92 (IL-2 2.5 ng/mL)): 1690 nM
O=c1sn(-c2cccc3ccccc23)c(=O)n1Cc1ccccc1 [Tideglusib]	–	–	–	relative IC50 (NK-92 (IL-2 2.5 ng/mL)): > 3000 nM
